Tested on: calcineurin
Test: Calcineurin activity assay in whole blood lysates (dephosphorylation of 32P-labelled 19 amino acid peptide substrate)
Assay type: biochemical
Settings: in the presence of okadaic acid
Description: Calcineurin activity was assayed using a modification of the method previously described by Fruman et al. (A Proc Natl Acad Sci USA, 1992) and in U.S. Pat. No. 6,605,593. Whole blood lysates are evaluated for their ability to dephosphorylate a ^32P-labelled 19 amino acid peptide substrate in the presence of okadaic acid, a phosphatase-type 1 and 2 inhibitor. Background phosphatase 2C activity (CsA and okadaic acid resistant activity) is determined and subtracted from each sample, with the assay performed in the presence and absence of excess added ISA247. The remaining phosphatase activity is taken as calcineurin activity.

C=C/C=C/C[C@@H](C)[C@@H](O)[C@H]1C(=O)N[C@@H](CC)C(=O)N(C)CC(=O)N(C)[C@@H](CC(C)C)C(=O)N[C@@H](C(C)C)C(=O)N(C)[C@@H](CC(C)C)C(=O)N[C@@H](C)C(=O)N[C@H](C)C(=O)N(C)[C@@H](CC(C)C)C(=O)N(C)[C@@H](CC(C)C)C(=O)N(C)[C@@H](C(C)C)C(=O)N1C [Trans ISA247]
Metabolite EC50 (calcineurin inhibition): 0.208 µg/mL | Metabolite Emax (percent calcineurin inhibition): 107%

Reference: US20060223743A1, “Metabolites of cyclosporin analogs” (priority 2004, published 2006)
